For 13 compounds, IC50 results are on record in patent publication US20260022142A1, “MACROCYCLIC IMMUNOMODULATORS” (Bristol-Myers Squibb Company, priority 2022, published 2026).

Bridge positions count the residues as written; N and C are the ends. Square brackets hold non-standard residues; d marks the D form. Peptide text beside a SMILES is read from it. * marks the point of attachment. ξ: configuration not given here. Phe(4-COOH) = N[C@@H](Cc1ccc(C(=O)O)cc1)C(=O)O; Bip = N[C@@H](Cc1ccc(-c2ccccc2)cc1)C(=O)O; Phe(3-Me) = Cc1cccc(C[C@H](N)C(=O)O)c1; hArg = N=C(N)NCCCC[C@H](N)C(=O)O; 3Thi = N[C@@H](Cc1ccsc1)C(=O)O; Cha = N[C@@H](CC1CCCCC1)C(=O)O; Cit = NC(=O)NCCC[C@H](N)C(=O)O; Thr(3ξ) = CC(O)[C@H](N)C(=O)O; Carboxymethyl = O=C(O)C*; Orn = NCCC[C@H](N)C(=O)O; Aun = NCCCCCCCCCCC(=O)O; Dab = NCC[C@H](N)C(=O)O; Dap = NC[C@H](N)C(=O)O; AEEA = NCCOCCOCC(=O)O

For the assay, the target named is T1, PD-1/PD-L1 interaction (PE-labeled human PD-L1-Ig binding to Jurkat cell line over-expressing human PD-1) (Homo sapiens, UniProt Q15116).
T1 construct: expressed in transfected cells; host or cells: Jurkat
T1 sequence (Q15116 25-288): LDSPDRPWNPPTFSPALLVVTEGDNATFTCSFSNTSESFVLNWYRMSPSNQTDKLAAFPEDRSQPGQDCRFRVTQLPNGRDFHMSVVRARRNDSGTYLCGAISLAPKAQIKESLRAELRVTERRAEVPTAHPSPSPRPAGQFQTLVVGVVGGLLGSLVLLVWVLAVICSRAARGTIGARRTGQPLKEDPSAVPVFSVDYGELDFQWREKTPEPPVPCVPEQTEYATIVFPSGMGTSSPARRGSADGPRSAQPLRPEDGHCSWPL
The experiment in a line: Jurkat-PD-1 Cell Binding High-Content Screening Assay (CBA). The assay is classed as cell-based. Particulars: Jurkat cell line over-expressing human PD-1; PE-labeled PD-L1-Ig 20 nM final; read-out: Jurkat hPD1-PDL1 IC50. In a few lines: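 Read-out is high-content imaging of cell-bound phycoerythrin-tagged PD-L1-Ig on fixed, Hoechst-counterstained Jurkat cells that over-express human PD-1. Compound exposure lasts 2 h at 37° C before the labeled ligand (20 nM final) is added for a further hour.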
Consider `CC(C)C[C@H]1NC(=O)[C@H](CN)NC(=O)[C@H](C(C)C)NC(=O)[C@H](Cc2ccc(-c3ccccc3)cc2)NC(=O)[C@H](C(C)C)NC(=O)[C@H](Cc2c[nH]c3ccccc23)NC(=O)[C@H](CC(=O)O)NC(=O)[C@H](Cc2ccc(OCC(=O)O)cc2)NC(=O)[C@H](Cc2ccsc2)NC(=O)CSC[C@@H](C(=O)NCCOCCOCC(=O)N[C@@H](CCCN)C(=O)NCCCCCCCCCCC(=O)O)NC(=O)[C@H](C(C)O)NC(=O)[C@H](C(C)C)NC(=O)[C@H](CC2CCCCC2)NC(=O)[C@H](CCN)NC1=O` (stereo partly drawn) [Compound 3209] ({CH2CO}-[3Thi]Y(Carboxymethyl)DWV[Bip]V[Dap][dL][Dab][Cha]V[Thr(3ξ)]C[AEEA][Orn][Aun]-OH; thioether N-14), for which the IC50 – broadly, the midpoint of a concentration-inhibition curve – came out at 0.0171 µM. On to `CC(C)C[C@H]1NC(=O)[C@H](CCN)NC(=O)[C@H](C(C)C)NC(=O)[C@H](Cc2ccc(-c3ccccc3)cc2)NC(=O)[C@H](C(C)C)NC(=O)[C@H](Cc2c[nH]c3ccccc23)NC(=O)[C@H](CC(=O)O)NC(=O)[C@H](Cc2ccc(OCC(=O)O)cc2)NC(=O)[C@H](Cc2ccsc2)NC(=O)CSC[C@@H](C(=O)NCCOCCOCC(=O)N[C@@H](CCCN)C(=O)NCCCCCCCCCCC(=O)O)NC(=O)[C@H](C(C)O)NC(=O)[C@H](C(C)C)NC(=O)[C@H](CC2CCCCC2)NC(=O)[C@H](CCN)NC1=O` (stereo partly drawn) [Compound 3210] ({CH2CO}-[3Thi]Y(Carboxymethyl)DWV[Bip]V[Dab][dL][Dab][Cha]V[Thr(3ξ)]C[AEEA][Orn][Aun]-OH; thioether N-14), for which the half-inhibitory concentration (IC50) worked out at 0.008 µM. With `CC(C)C[C@H]1NC(=O)[C@H](CCCN)NC(=O)[C@H](C(C)C)NC(=O)[C@H](Cc2ccc(-c3ccccc3)cc2)NC(=O)[C@H](C(C)C)NC(=O)[C@H](Cc2c[nH]c3ccccc23)NC(=O)[C@H](CC(=O)O)NC(=O)[C@H](Cc2ccc(OCC(=O)O)cc2)NC(=O)[C@H](Cc2ccsc2)NC(=O)CSC[C@@H](C(=O)NCCOCCOCC(=O)N[C@@H](CCCN)C(=O)NCCCCCCCCCCC(=O)O)NC(=O)[C@H](C(C)O)NC(=O)[C@H](C(C)C)NC(=O)[C@H](CC2CCCCC2)NC(=O)[C@H](CCN)NC1=O` (stereo partly drawn) [Compound 3211] ({CH2CO}-[3Thi]Y(Carboxymethyl)DWV[Bip]V[Orn][dL][Dab][Cha]V[Thr(3ξ)]C[AEEA][Orn][Aun]-OH; thioether N-14) the figure was 0.0183 µM; with `CC(C)C[C@H]1NC(=O)[C@H](CCN)NC(=O)[C@H](C(C)C)NC(=O)[C@H](Cc2ccc(-c3ccccc3)cc2)NC(=O)[C@H](C(C)C)NC(=O)[C@H](Cc2c[nH]c3ccccc23)NC(=O)[C@H](CC(=O)O)NC(=O)[C@H](Cc2ccc(OCC(=O)O)cc2)NC(=O)[C@H](CCCCNC(=N)N)NC(=O)CSC[C@@H](C(=O)NCCOCCOCC(=O)N[C@@H](CCCN)C(=O)NCCCCCCCCCCC(=O)O)NC(=O)[C@H](C(C)O)NC(=O)[C@H](C(C)C)NC(=O)[C@H](CC2CCCCC2)NC(=O)[C@H](CCN)NC1=O` (stereo partly drawn) [Compound 3212] ({CH2CO}-[hArg]Y(Carboxymethyl)DWV[Bip]V[Dab][dL][Dab][Cha]V[Thr(3ξ)]C[AEEA][Orn][Aun]-OH; thioether N-14), 0.0137 µM; with `CC(C)C[C@H]1NC(=O)[C@H](CCCN)NC(=O)[C@H](C(C)C)NC(=O)[C@H](Cc2ccc(-c3ccccc3)cc2)NC(=O)[C@H](C(C)C)NC(=O)[C@H](Cc2c[nH]c3ccccc23)NC(=O)[C@H](CC(=O)O)NC(=O)[C@H](Cc2ccc(OCC(=O)O)cc2)NC(=O)[C@H](CCCCNC(=N)N)NC(=O)CSC[C@@H](C(=O)N[C@@H](CCN)C(=O)NCCOCCOCC(=O)NCCCCCCCCCCC(=O)O)NC(=O)[C@H](CCCNC(N)=O)NC(=O)[C@H](C(C)C)NC(=O)[C@H](CC2CCCCC2)NC(=O)[C@H](CC(N)=O)NC1=O` [Compound 3213] ({CH2CO}-[hArg]Y(Carboxymethyl)DWV[Bip]V[Orn][dL]N[Cha]V[Cit]C[Dab][AEEA][Aun]-OH; thioether N-14), 0.0135 µM.

With `CC(C)C[C@H]1NC(=O)[C@H](CCCN)NC(=O)[C@H](C(C)C)NC(=O)[C@H](Cc2ccc(-c3ccccc3)cc2)NC(=O)[C@H](C(C)C)NC(=O)[C@H](Cc2c[nH]c3ccccc23)NC(=O)[C@H](CC(=O)O)NC(=O)[C@H](Cc2ccc(OCC(=O)O)cc2)NC(=O)[C@H](CCCCNC(=N)N)NC(=O)CSC[C@@H](C(=O)N[C@@H](CCN)C(=O)NCCOCCOCC(=O)NCCCCCCCCCCC(=O)O)NC(=O)[C@H](CN)NC(=O)[C@H](C(C)C)NC(=O)[C@H](CC2CCCCC2)NC(=O)[C@H](CC(N)=O)NC1=O` [Compound 3214] ({CH2CO}-[hArg]Y(Carboxymethyl)DWV[Bip]V[Orn][dL]N[Cha]V[Dap]C[Dab][AEEA][Aun]-OH; thioether N-14), the IC50 is 0.0228 µM. With `CC(C)C[C@H]1NC(=O)[C@H](CCCN)NC(=O)[C@H](C(C)C)NC(=O)[C@H](Cc2ccc(-c3ccccc3)cc2)NC(=O)[C@H](C(C)C)NC(=O)[C@H](Cc2c[nH]c3ccccc23)NC(=O)[C@H](CC(=O)O)NC(=O)[C@H](Cc2ccc(OCC(=O)O)cc2)NC(=O)[C@H](CCCCNC(=N)N)NC(=O)CSC[C@@H](C(=O)N[C@@H](CCN)C(=O)NCCOCCOCC(=O)NCCCCCCCCCCC(=O)O)NC(=O)[C@H](CCN)NC(=O)[C@H](C(C)C)NC(=O)[C@H](CC2CCCCC2)NC(=O)[C@H](CC(N)=O)NC1=O` [Compound 3215] ({CH2CO}-[hArg]Y(Carboxymethyl)DWV[Bip]V[Orn][dL]N[Cha]V[Dab]C[Dab][AEEA][Aun]-OH; thioether N-14) the figure was 0.0253 µM. On to `CC(C)C[C@H]1NC(=O)[C@H](CCCN)NC(=O)[C@H](C(C)C)NC(=O)[C@H](Cc2ccc(-c3ccccc3)cc2)NC(=O)[C@H](C(C)C)NC(=O)[C@H](Cc2c[nH]c3ccccc23)NC(=O)[C@H](CC(=O)O)NC(=O)[C@H](Cc2ccc(OCC(=O)O)cc2)NC(=O)[C@H](CCCCNC(=N)N)NC(=O)CSC[C@@H](C(=O)N[C@@H](CCN)C(=O)NCCOCCOCC(=O)NCCCCCCCCCCC(=O)O)NC(=O)[C@H](CCCN)NC(=O)[C@H](C(C)C)NC(=O)[C@H](CC2CCCCC2)NC(=O)[C@H](CC(N)=O)NC1=O` [Compound 3216] ({CH2CO}-[hArg]Y(Carboxymethyl)DWV[Bip]V[Orn][dL]N[Cha]V[Orn]C[Dab][AEEA][Aun]-OH; thioether N-14), for which the IC50 turned out to be 0.0352 µM.

Consider `CC(C)C[C@H]1NC(=O)[C@H](CCCN)NC(=O)[C@H](C(C)C)NC(=O)[C@H](Cc2ccc(-c3ccccc3)cc2)NC(=O)[C@H](C(C)C)NC(=O)[C@H](Cc2c[nH]c3ccccc23)NC(=O)[C@H](CC(=O)O)NC(=O)[C@H](Cc2ccc(OCC(=O)O)cc2)NC(=O)[C@H](CCCCNC(=N)N)NC(=O)CSC[C@@H](C(=O)N[C@@H](CCN)C(=O)NCCOCCOCC(=O)NCCCCCCCCCCC(=O)O)NC(=O)[C@H](CCCCN)NC(=O)[C@H](C(C)C)NC(=O)[C@H](CC2CCCCC2)NC(=O)[C@H](CC(N)=O)NC1=O` [Compound 3217] ({CH2CO}-[hArg]Y(Carboxymethyl)DWV[Bip]V[Orn][dL]N[Cha]VKC[Dab][AEEA][Aun]-OH; thioether N-14), for which the IC50 turned out to be 0.0179 µM. As to `CC(C)C[C@H]1NC(=O)[C@H](CCCN)NC(=O)[C@H](C(C)C)NC(=O)[C@H](Cc2ccc(-c3ccccc3)cc2)NC(=O)[C@H](C(C)C)NC(=O)[C@H](Cc2c[nH]c3ccccc23)NC(=O)[C@H](CC(=O)O)NC(=O)[C@H](Cc2ccc(OCC(=O)O)cc2)NC(=O)[C@H](CCCCNC(=N)N)NC(=O)CSC[C@@H](C(=O)N[C@@H](CCCNC(N)=O)C(=O)NCCOCCOCC(=O)NCCCCCCCCCCC(=O)O)NC(=O)[C@H](CCCN)NC(=O)[C@H](C(C)C)NC(=O)[C@H](CC2CCCCC2)NC(=O)[C@H](CC(N)=O)NC1=O` [Compound 3218] ({CH2CO}-[hArg]Y(Carboxymethyl)DWV[Bip]V[Orn][dL]N[Cha]V[Orn]C[Cit][AEEA][Aun]-OH; thioether N-14), the IC50 came to 0.0269 µM. In the case of `Cc1cccc(C[C@@H]2NC(=O)[C@H](CC(=O)O)NC(=O)[C@H](Cc3ccc(OCC(=O)O)cc3)NC(=O)[C@H](CCCNC(=N)N)NC(=O)CSC[C@@H](C(=O)N[C@@H](CCCCN)C(=O)NCCCCCCCCCCC(=O)O)NC(=O)[C@H](CCCN)NC(=O)[C@H](C(C)C)NC(=O)[C@H](CC3CCCCC3)NC(=O)[C@H](CCN)NC(=O)[C@@H](CC(C)C)NC(=O)[C@H](CCCN)NC(=O)[C@H](C(C)C)NC(=O)[C@H](Cc3ccc(-c4ccccc4)cc3)NC(=O)[C@H](C(C)C)NC2=O)c1` [Compound 3219] ({CH2CO}-RY(Carboxymethyl)D[Phe(3-Me)]V[Bip]V[Orn][dL][Dab][Cha]V[Orn]CK[Aun]-OH; thioether N-14), the 50% inhibitory concentration (IC50) is 0.0096 µM. As to `Cc1cccc(C[C@@H]2NC(=O)[C@H](CC(=O)O)NC(=O)[C@H](Cc3ccc(OCC(=O)O)cc3)NC(=O)[C@H](CCCNC(=N)N)NC(=O)CSC[C@@H](C(=O)NCCOCCOCC(=O)N[C@@H](CCN)C(=O)NCCCCCCCCCCC(=O)O)NC(=O)[C@H](CN)NC(=O)[C@H](C(C)C)NC(=O)[C@H](CC3CCCCC3)NC(=O)[C@H](CCN)NC(=O)[C@@H](CC(C)C)NC(=O)[C@H](CCCN)NC(=O)[C@H](C(C)C)NC(=O)[C@H](Cc3ccc(-c4ccccc4)cc3)NC(=O)[C@H](C(C)C)NC2=O)c1` [Compound 3220] ({CH2CO}-RY(Carboxymethyl)D[Phe(3-Me)]V[Bip]V[Orn][dL][Dab][Cha]V[Dap]C[AEEA][Dab][Aun]-OH; thioether N-14), the IC50 amounted to 0.0115 µM.

With `CC(C)C[C@H]1NC(=O)[C@H](CCCN)NC(=O)[C@H](C(C)C)NC(=O)[C@H](Cc2ccc(-c3ccccc3)cc2)NC(=O)[C@H](C(C)C)NC(=O)[C@H](Cc2c[nH]c3ccccc23)NC(=O)[C@H](CC(=O)O)NC(=O)[C@H](Cc2ccc(C(=O)O)cc2)NC(=O)[C@H](Cc2ccc(OCC(=O)O)cc2)NC(=O)CSC[C@@H](C(=O)NCC(=O)NCCOCCOCC(=O)N[C@@H](CCCN)C(=O)NCCCCCCCCCCC(=O)O)NC(=O)[C@H](CCCN)NC(=O)[C@H](C(C)C)NC(=O)[C@H](CC2CCCCC2)NC(=O)[C@H](CCN)NC1=O` [Compound 3228] ({CH2CO}-Y(Carboxymethyl)[Phe(4-COOH)]DWV[Bip]V[Orn][dL][Dab][Cha]V[Orn]CG[AEEA][Orn][Aun]-OH; thioether N-14), the 50% inhibitory concentration (IC50) is 0.0098 µM.
